Source: patent publication US8846653B2, “Delta-tocotrienol treatment and prevention of pancreatic cancer” (University of South Florida, priority 2006, dated 2014)

Columns and labels:
[1] = test system: MIA PaCa2 cells; test: Proliferation by MTT, increasing concentrations of δ-tocotrienol; assay type: cell-based, human; details: MIA PaCa2, at 24 hours; read-out: IC50 (inhibition of proliferation, MTT)
Experimental: FIG. 22 is a graph wherein MIA PaCa2 pancreatic cancer cells (3×10^3) were plated in 96 well plates and treated the following day with δ-tocotrienol. Proliferation was assessed by MTT at 24 hour intervals. […] HPDE 6C7 cells were also treated with increasing concentrations of δ-tocotrienol for 24 hours.
(§1) MIA PaCa2, SW1990, BXPC3, and HPDE 6C7 cells (3×10^3) were cultured as described in the Examples above, in 96-well plates and treated the following day with increasing concentrations of δ-tocotrienol.

[2] = test system: BXPC3 cells; test: as above; assay type: cell-based, human; details: BXPC3, at 24 hours; read-out: IC50 (inhibition of proliferation, MTT)
Experimental: FIG. 24 is a graph wherein BXPC3 pancreatic cancer cells (3×10^3) were plated in 96 well plates and treated the following day with δ-tocotrienol. Proliferation was assessed by MTT at 24 hour intervals. […] HPDE 6C7 cells were also treated with increasing concentrations of δ-tocotrienol for 24 hours.
as §1

[3] = test system: MiaPaCa-2 cells; test: Annexin V-FITC staining, flow cytometry for apoptosis; assay type: cell-based, human; details: MiaPaCa-2, varying concentrations, 24 hours
Experimental: FIG. 3 is a graph wherein MIA PaCa-2 pancreatic cancer cells were treated with in varying concentrations of δ-tocotrienol or vehicle for 24 hours. Cells were collected and stained with Annexin V-FITC and analyzed by flow cytometry for apoptosis.
MiaPaCa2 and HPDE 6C7 cells were cultured, as discussed above, and treated with δ-tocotrienol or vehicle. […] MiaPaCa-2, BxPc-3, and SW1990 pancreatic cancer cells were treated with in varying concentrations of δ-tocotrienol or vehicle for 24 hours. The cells were then harvested for annexin V-FITC staining and analyzed by flow cytometry.

[4] = test system: p-cRaf, p-MEK, and p-ERK; test: Immunoblot of downstream phosphorylated targets of oncogenic Ras; assay type: cell-based, human; details: pancreatic cancer cell lines, 20 μM
Experimental: The Ras effector pathways Raf-MEK-ERK and PI3 kinase-AKT are important for cell proliferation and survival, respectively. Pancreatic cancer cell lines (MIA PaCa2, SW1990, BXPC3) and HPDE 6C7 cells were treated with 8-tocotrienol (20 μM) and cell lysates were collected and prepared at progressive time intervals as described above. Proteins from lysates were run by SDS PAGE and immunoblotted with the following antibodies: Ras, p-cRaf (ser 338), p-MEK1/2, MEK1/2, pERK 44/42, ERK 44/42 (Cell Signaling) and c-Raf (BD Transduction Laboratories). […] The MIA PaCa2 and SW1990 cells were then tested for AKT inhibition. The cells were treated with δ-tocotrienol (20 μM) for 24 and 48 hours and cell lysates were run by SDS-PAGE and immunoblotted for p-AKT and AKT (Cell Signaling). […] Taken together, the inhibition of downstream effectors of oncogenic Ras signaling by δ-tocotrienol without an effect on Ras protein levels may indicate a negative regulatory role of 8-tocotrienol on the function of oncogenic Ras. The pancreatic ductal epithelial cell proliferative inhibition by δ-tocotrienol was tested to see if it occurs through blocking aberrant signal transduction cascades. […]

[5] = test system: Caspase 8, Caspase 3, PARP, cytochrome C, caspase 9; test: Immunoblot for biomarkers of apoptosis (caspase cascade); assay type: cell-based, human; details: MIA PaCa2, 20 μM
Experimental: An aliquot of the cells were collected and cells lysed. The lysate was then run on a Western blot and cleavage of caspase 8, caspase 3, and PARP detected.
In addition to its chemopreventive effects, δ-Tocotrienol induces apoptosis in pancreatic cancer. MIA PaCa2 cells were treated with either δ-tocotrienol or vehicle for 24 hours. Cells were collected and stained with annexin V-FITC and analyzed by flow cytometry for apoptosis. […] MIA PaCa2 cells and HPDE 6C7 cells were treated with vehicle or δ-tocotrienol (20 μM) for 24 hours, then harvested and stained for TUNEL. […] Cell lysates were prepared from MIA PaCa2 cells treated with 8-tocotrienol (20 μM) at progressive time intervals and proteins from lysates were run by SDS PAGE and immunoblotted for biomarkers of apoptosis.

[6] = test system: MIA PaCa-2 cells; test: Trypan blue cell death, δ-tocotrienol, 5-FU or combination, 24 hours; assay type: cell-based, human; details: MIA PaCa-2, 50 μM each
Experimental: MIA PaCa-2 cells were treated vehicle or an anti-proliferative treatment comprising 50 μM δ-tocotrienol, 50 μM 5-FU, or 50 μM δ-tocotrienol and 50 μM 5-FU for 24 hours. Cells were harvested, fixed, permeablized and stained with trypan blue.

[7] = test system: MIA PaCa2 xenografts; test: MIA PaCa2 luciferase xenograft tumor growth in nude mice; assay type: in vivo; details: 100 mg/kg/day by gavage
Experimental: Rate of growth by day 10 of treatment is less in the tocotrienol treatment group. Stable transfectants of MIA PaCa2 cells with luciferase were injected subcutaneously into nude mice. Tumor volumes were measured every 2 days with calibers and the rate of growth was determined weekly by measuring tumor luminescence using the IVIS 100 Xenogen system. Tumors of similar volume (100-150 mm^3) and rate of growth based on luminescence were randomized to receive either vehicle or δ-tocotrienol (100 mg/kg/day) by gavage for 20 days.
Stable transfectants of MIA PaCa2 cells with luciferase were injected subcutaneously into nude mice. Mice were treated with either rice bran oil (vehicle) or δ-tocotrienol (100 mg/kg/day) via gavage five times per week. Tumor volumes were measured every 2 days with calibers and the rate of growth was determined weekly by measuring tumor luminescence using the IVIS 100 Xenogen system. Tumors of similar volume (100-150 mm^3) and rate of growth based on luminescence were randomized to receive either vehicle or δ-tocotrienol (100 mg/kg/day) by gavage for 20 days.

[8] = test system: oncogenic Ras signaling targets in tumors; test: Immunohistochemical staining of extracted xenograft tumors; assay type: in vivo, mice
Experimental: FIGS. 50A and B are immunohistochemical stains of the effects of δ-tocotrienol on oncogenic Ras signaling targets. […] A. A comparison of H&E, Ki67, and p-MAPK staining of control versus delta-tocotrienol treated MIA PaCa2 cells. B. A comparison of p-AKT, p27^kip1, and TUNEL staining of control versus delta-tocotrienol treated cells.
Tumors were extracted on the last day of treatment and imbedded in paraffin. Immunohistochemical staining was performed to determine the effects of δ-tocotrienol on oncogenic Ras signaling targets. […] Furthermore, the biomarker proteins p-MAPK and p-AKT were decreased and p27^kip1 expression was increased in δ-tocotrienol treated tumors. […] This is associated with inhibition of AKT signaling targets. Moreover, overexpression of myr AKT in Pancreatic Cancer cells rescues the effect δ-Tocotrienol induces apoptosis in vitro and in vivo.

[9] = tumors from treated mice vs control group

SMILES: CC(C)=CCC/C(C)=C/CC/C(C)=C/CC[C@]1(C)CCc2cc(O)cc(C)c2O1 [T3 delta, delta tocotrienol]
- IC50 [1]: 20 to 25 µM
- IC50 [2]: 20 to 25 µM
- induction of apoptosis (annexin V-FITC) [3]: dose dependent induction of apoptosis
- downstream phosphorylated targets of oncogenic Ras p-cRaf, p-MEK, p-ERK [4]: selectively inhibited
- mitochondrial pro-apoptotic proteins (cytochrome C release, cleavage of caspase 9) [5]: no significant effect
- caspase cascade: cleavage of caspase 8, caspase 3, PARP ([5]; time dependent): activation of the caspase cascade
- cell death (Trypan Blue) [6]: significantly more than 5-FU alone
- rate of growth by tumor luminescence ([7]; day 10 of treatment): significantly less
- reduction in tumor growth ([7]; nude mice, vs vehicle): 50%
- p27^kip1 expression ([8]; treated tumors): increased
- p-AKT ([8]; treated tumors): decreased
- p-MAPK ([8]; treated tumors): decreased
- Ki67 staining (proliferation) [8, 9]: decrease in Ki67
- TUNEL staining (apoptosis) [8, 9]: induction of apoptosis
